Measurements published in publication PMC6345779, “Hypoculoside, a sphingoid base-like compound from Acremonium disrupts the membrane integrity of yeast cells” (Scientific Reports, 2019).

Experiments:
Type in all cases: cell-based, Saccharomyces cerevisiae
[1] = system: vps35Δ, pep8Δ, vps20Δ, vps27Δ and vps36Δ strains; test: Single-mutant sensitivity growth assay of deletion strains in YPD medium
Protocol: Figure 3 Homozygous profiling of hypoculoside in Saccharomyces cerevisiae. (A) logFC (Fitness Coefficient) was plotted against P-value for the 3702 mutants that were analyzed by HOP. The more negative the logFC value of a mutant, more sensitive is the mutant to hypoculoside. Mutants that have logFC < −0.5 and P-value < 0.05 are indicated by red dots and the remaining strains are indicated as blue dots. For the sake of clarity, gene names of only a subset of the top hits are indicated in the plot. (B) Wild type strain BY4743 and 24 deletion strains that were sensitive to hypoculoside in the HOP assay, were grown in the YPD medium in the presence of either DMSO or hypoculoside at different concentrations (0, 0.6, 1.3, 2.7 and 5.5 µM). Normalized growth at the different concentrations of hypoculoside tested after 24 hours of incubation at 30 °C is plotted for each strain.
To test the validity of our HOP data, we first identified 336 ‘hypoculoside-sensitive’ mutants (Supplementary Table S1) that had at least a 1.4-fold inhibitory effect on their growth rate (i.e. logFC ≤ −0.5) with a P-value ≤ 0.05. From the list of 336 mutants, we chose 24 mutants that represent different Gene Ontology categories (see below) and tested their sensitivity to hypoculoside. Eighteen of the total 24 mutants were sensitive to hypoculoside confirming the HOP data (Fig. 3B). We also tested mutants that were predicted to be resistant to hypoculoside (positive logFC ≥ 0.5 and P-value ≤ 0.05). But none of them were resistant to hypoculoside in comparison to wild type strain in the single-mutant sensitivity assays (data not shown).
Figure 5 Structure-activity studies of hypoculoside. (A) Wild type strain (BY4743), vps35Δ, pep8Δ, vps20Δ, vps27Δ and vps36Δ strains were grown in YPD medium in the presence of hypoculoside or hypoculine at the indicated concentrations. Normalized growth at the different concentrations of hypoculoside and hypoculine tested after 24 hours of incubation at 30 °C is plotted for each strain. (B) Wild type strain (BY4743), vps35Δ, pep8Δ, vps20Δ, vps27Δ and vps36Δ strains were grown in YPD medium in the presence of hypoculoside or phytosphingosine or dihydrosphingosine at the indicated concentrations. Normalized growth at the different concentrations of hypoculoside, phytosphingosine and dihydrosphingosine tested after 24 hours of incubation at 30 °C is plotted for each strain.

[2] = system: vacuoles of wild type yeast cells; test: FM 4-64 fluorescence microscopy of vacuolar structure; details: 11.6 µM, FM 4-64 pre-labelled wild type cells, N = 100 cells
Protocol: As several vacuolar transport mutants were sensitive to hypoculoside (Fig. 3), we examined the effect of hypoculoside on the vacuolar structure of yeast cells. We incubated wild type yeast cells with FM 4–64, a dye that stains the vacuolar membranes, for 1 hour. We then washed off the excess FM 4–64 from the medium and transferred the cells into fresh medium with either hypoculoside or hypoculine or DMSO. […] In contrast, about 50% of 11.6 µM hypoculoside-treated cells had defective vacuoles (Fig. 7B). However, only 3% of 11.6 µM hypoculine-treated cells had defective vacuoles. Thus, the effect of hypoculoside and hypoculine on vacuolar structure correlates with their inhibitory activities.
Figure 7 Hypoculoside but not hypoculine disrupts the vacuolar structure of yeast cells. Wild type yeast cells containing vacuoles pre-labelled with the lipophilic dye FM 4-64 were exposed to either DMSO or hypoculoside or hypoculine at the indicated concentrations for 1 hour. Effects of the compounds on vacuolar morphology was analyzed by fluorescence microscopy. […] (B) Quantification of the various categories for cells treated with either DMSO or hypoculoside or hypoculine is plotted (N = 100 cells). […]
Labeling of yeast cells with FM4-64 (Invitrogen) was done as previously reported. […] The images were acquired using an inverted fluorescence microscope ZEISS LSM 5 LIVE (Carl Zeiss, Oberkochen, Germany).

Wild type yeast cells = test: FM 4-64FX fluorescence microscopy (endocytosis / membrane integrity); details: 5.4 µM pre-treatment for 30 minutes
Protocol: To test if hypoculoside affects endocytosis, we used a dye FM 4–64FX which is a fixable analog of the FM 4-64 membrane stain. We incubated logarithmically growing yeast cells with either DMSO or hypoculoside for 30 minutes and then washed the cells off the compound and resuspended them in fresh growth medium containing FM 4-64FX to visualize endocytosis and vacuolar structure. In DMSO pre-treated cells, FM 4-64FX first stained the plasma membrane (Fig. 8A) at t = 0 and stained the cytoplasmic structures after 30′ indicating its uptake by endocytosis (Fig. 8A).
Figure 8 Hypoculoside but not hypoculine disrupts the membrane integrity of yeast cells. (A) Wild type yeast cells pre-treated with either DMSO or hypoculoside (5.4 μM) were exposed to FM 4-64FX. Uptake of FM 4-64FX after 0′, 30′ and 120′ was analyzed by fluorescence microscopy of fixed cells. […] They were then treated with propidium iodide (PI) and percentage of PI-staining cells was assayed by fluorescence microscopy. Representative images of cells visualized by bright field and fluorescence microscopy are shown along with quantification of PI-staining cells (N = 100 cells) in (C).
Labelling of yeast cells with FM4-64FX (Invitrogen) was done as previously reported. […] The images were acquired using an inverted fluorescence microscope ZEISS LSM 5 LIVE (Carl Zeiss, Oberkochen, Germany).

With CC(N)C(O)CCCCCCCCCCCCCCCCCCC(O)C(C)OC1OC(CO)C(O)C(O)C1O (centres unmarked) [hypoculoside, Hypoculoside] the “inhibition of growth of the vps35, pep8, vps20, vps27 and vps36 mutants” value ([1]; 5.5 µM, YPD, 24 hours at 30 °C) was “completely inhibited”, the “concentration that inhibited the growth of the vps35, pep8, vps20, vps27 and vps36 mutants” value ([1]; YPD, 24 hours at 30 °C (Fig. 5A)) was 5.5 µM and the “toxicity to vesicular trafficking mutants in comparison to the wild type strain” value ([1]; several vesicular trafficking mutants) was “two-fold more toxic”. The “cells with defective vacuoles” value [2] was “about 50%” and the “FM 4-64FX staining pattern of pre-treated cells” value (Wild type yeast cells) was “stained the cytoplasmic contents even at t = 0”.
